The structures appear in SMILES notation. Structures can show the parent of a compound that is named as a salt.

As a reminder, the melting point is the temperature of the solid-liquid transition. `CCC1(CCCCCCN2CCN(c3cccc(Cl)c3)CC2)C(=O)Nc2ccccc21.Cl` (stereo not shown) came in with a melting point of 124 to 127 °C. As for `CCC1(CCCCN2CCN(c3cccc(Cl)c3)CC2)C(=O)Nc2ccccc21` (stereo not shown) (as salt: HCl) (hydrate or solvate) [Example 60, 3-{4-[4-(3-Chlorophenyl)-piperazin-1-yl]-butyl}-3-ethyl-1,3-dihydro-2H-indol-2-one-H2O—HCl-isopropanol (1:1:1:1)], the melting point fell in the range of 109 to 111 °C. Regarding `CCC1(CCCCN2CCN(c3cccc(Cl)c3)CC2)C(=O)Nc2ccc(F)cc21` (stereo not shown) (as salt: hydrochloride) [Example 85, 3-{4-[4-(3-Chlorophenyl)-piperazin-1-yl]-butyl}-3-ethyl-5-fluoro-1,3-dihydro-2H-indol-2-one mono-hydrochloride], the melting point was in the range of 121 to 124 °C. Under `CCC1(CCCCN2CCN(c3cccc(Cl)c3)CC2)C(=O)Nc2cc(F)c(Cl)cc21` (stereo not shown) (as salt: hydrochloride) [Example 89, 5-Chloro-3-{4-[4-(3-chlorophenyl)-piperazin-1-yl]-butyl}-3-ethyl-6-fluoro-1,3-dihydro-2H-indol-2-one monohydrochloride] stands 237 to 239 °C; under `CCC1(CCCCN2CCN(c3ccc(Cl)c(C(F)(F)F)c3)CC2)C(=O)Nc2ccccc21` (stereo not shown) (as salt: hydrochloride) [Example 96, 3-{4-[4-(4-Chloro-3-trifluoromethyl-phenyl)-piperazin-1-yl]-butyl}-3-ethyl-1,3-dihydro-2H-indol-2-one monohydrochloride], 204 to 206 °C. Under `CCC1(CCCCN2CCN(c3cccc(Cl)c3)CC2)C(=O)Nc2ccc(Br)cc21` (stereo not shown) (as salt: oxalate) [Example 61, 5-Bromo-3-{4-[4-(3-chlorophenyl)-piperazin-1-yl]-butyl}-3-ethyl-1,3-dihydro-2H-indol-2-one monooxalate] stands 200 to 202 °C. The figure for `CCC1(CCCCN2CCN(c3ccccc3)CC2)C(=O)Nc2ccccc21` (stereo not shown) (as salt: oxalate) [Example 68, 3-[4-(4-Phenylpiperazin-1-yl)-butyl]-3-ethyl-1,3-dihydro-2H-indol-2-one monooxalate] is 121 to 123 °C; for `CCC1(CCCCN2CCN(c3cccc(Cl)c3)CC2)C(=O)Nc2ccc(S(N)(=O)=O)cc21` (stereo not shown) (as salt: oxalate) [Example 72, 3-{4-[4-(3-Chlorophenyl)-piperazin-1-yl]-butyl}-3-ethyl-1,3-dihydro-2H-indol-2-one 5-sulfonamide monooxalate] it is 188 to 190 °C. `CCC1(CCCN2CCN(c3ccccn3)CC2)C(=O)Nc2ccccc21` (stereo not shown) [Example 58, 3-Ethyl-3-[3-(4-pyridin-2-yl-piperazin-1-yl)-propyl]-1,3-dihydro-2H-indol-2-one] returned a melting point of 122 to 124 °C.

In turn, `CCC1(CCCCN2CCN(c3ccccn3)CC2)C(=O)Nc2ccc(Cl)cc21` (stereo not shown) [Example 66, 5-Chloro-3-ethyl-3-[4-(4-pyridin-2-yl-piperazin-1-yl)-butyl]-1,3-dihydro-2H-indol-2-one] came in with a melting point of 154 to 156 °C.

For the compound `CCC1(CCCCN2CCN(c3cccc(Cl)c3)CC2)C(=O)Nc2ccc(Cl)cc21` (stereo not shown) [Example 67, 5-Chloro-3-{4-[4-(3-chlorophenyl)-piperazin-1-yl]-butyl}-3-ethyl-1,3-dihydro-2H-indol-2-one], the melting point lay in the range of 139 to 142 °C. Under `CCC1(CCCCN2CCN(c3ccc(Cl)cc3)CC2)C(=O)Nc2ccc(C)cc21` (stereo not shown) [Example 73, 3-{4-[4-(4-Chlorophenyl)-piperazin-1-yl]-butyl}-3-ethyl-5-methyl-1,3-dihydro-2H-indol-2-one] stands 175 to 177 °C; under `CCC1(CCCCN2CCN(c3ccc(OC)cc3)CC2)C(=O)Nc2ccccc21` (stereo not shown) [Example 74, 3-Ethyl-3-{4-[4-(4-methoxyphenyl)-piperazin-1-yl]-butyl}-1,3-dihydro-2H-indol-2-one], 109 to 110 °C; under `CCC1(CCCCN2CCN(c3cccc(Cl)c3)CC2)C(=O)Nc2cc(F)ccc21` (stereo not shown) [Example 77, 3-{4-[4-(3-Chlorophenyl)-piperazin-1-yl]-butyl}-3-ethyl-6-fluoro-1,3-dihydro-2H-indol-2-one], 116 to 117 °C. Under `CCC1(CCCCN2CCN(c3ccccn3)CC2)C(=O)Nc2ccc(C)cc21` (stereo not shown) [Example 80, 3-Ethyl-5-methyl-3-[4-(4-pyridin-2-yl-piperazin-1-yl)-butyl]-1,3-dihydro-2H-indol-2-one] stands 168 to 170 °C; under `CCC1(CCCCN2CCN(c3ccccc3Cl)CC2)C(=O)Nc2ccccc21` (stereo not shown) [Example 81, 3-{4-[4-(2-Chlorophenyl)-piperazin-1-yl]-butyl}-3-ethyl-1,3-dihydro-2H-indol-2-one], 145 to 148 °C. The figure for `CCC1(CCCCN2CCN(c3cccc4c3OCCO4)CC2)C(=O)Nc2cc(F)ccc21` (stereo not shown) [Example 83, 3-{4-[4-(2,3-Dihydrobenzo[1,4]dioxin-5-yl)-piperazin-1-yl]-butyl}-3-ethyl-6-fluoro-1,3-dihydro-2H-indol-2-one] is 146 to 147 °C. Compound `CCC1(CCCCN2CCN(c3ccccn3)CC2)C(=O)Nc2ccc(F)cc21` (stereo not shown) [Example 84, 3-Ethyl-5-fluoro-3-[4-(4-pyridin-2-yl-piperazin-1-yl)-butyl]-1,3-dihydro-2H-indol-2-one] came in with a melting point of 144 to 147 °C. Regarding `CCC1(CCCCN2CCN(c3cccc(OC)c3)CC2)C(=O)Nc2ccccc21` (stereo not shown) [Example 91, 3-Ethyl-3-{4-[4-(3-methoxyphenyl)-piperazin-1-yl]-butyl}-1,3-dihydro-2H-indol-2-one], the melting point lay within 123 to 125 °C.

`CCC1(CCCCCN2CCN(c3ccccn3)CC2)C(=O)Nc2ccccc21` (stereo not shown) [Example 93, 3-Ethyl-3-[5-(4-pyridin-2-yl-piperazin-1-yl)-pentyl]-1,3-dihydro-2H-indol-2-one] came in with a melting point of 127 to 128 °C. For the compound `CCC1(CCCCN2CCN(c3ccc(C)c(Cl)c3)CC2)C(=O)Nc2ccccc21` (stereo not shown) [Example 99, 3-{4-[4-(3-Chloro-4-methylphenyl)-piperazin-1-yl]-butyl}-3-ethyl-1,3-dihydro-2H-indol-2-one], the melting point was in the range of 103 to 106 °C.

`CCC1(CCCCN2CCN(c3ccc(F)c(Cl)c3)CC2)C(=O)Nc2ccccc21` (stereo not shown) [Example 100, 3-{4-[4-(3-Chloro-4-fluorophenyl)-piperazin-1-yl]-butyl}-3-ethyl-1,3-dihydro-2H-indol-2-one] had a melting point of 121 to 124 °C. Under `CCC1(CCCN2CCN(c3cccc(Cl)c3)CC2)C(=O)Nc2ccccc21` (stereo not shown) [Example 108, 3-{3-[4-(3-Chlorophenyl)-piperazin-1-yl]-propyl}-3-ethyl-1,3-dihydro-2H-indol-2-one] stands 119 to 120 °C; under `CCC1(CCCCN2CCN(c3ccc(F)cc3)CC2)C(=O)Nc2ccc(F)cc21` (stereo not shown) [Example 111, 3-Ethyl-5-fluoro-3-{4-[4-(4-fluorophenyl)-piperazine-1-yl]-butyl}-1,3-dihydro-2H-indol-2-one], 119 to 122 °C.

`CCC1(CCCCN2CCN(c3ccc(F)cc3)CC2)C(=O)Nc2ccc(C)cc21` (stereo not shown) [Example 113, 3-Ethyl-3-{4-[4-(4-fluorophenyl)-piperazin-1-yl]-butyl}-5-methyl-1,3-dihydro-2H-indol-2-one] displayed a melting point of 146 to 149 °C.

These data come from patent publication US7786129B2, “Piperazine derivatives of dialkyl oxindoles” (Egis Gyogyszergyar Nyrt, priority 2004, dated 2010).
